# According to patent US7858640B2, “Quinolines and their therapeutic use” (Pulmagen Therapeutics (Asthma) Limited, priority 2005, dated 2010):
# Target: T1, CRTH2 receptor (Homo sapiens, UniProt Q9Y5Y4)
# T1 sequence (Q9Y5Y4 1-395): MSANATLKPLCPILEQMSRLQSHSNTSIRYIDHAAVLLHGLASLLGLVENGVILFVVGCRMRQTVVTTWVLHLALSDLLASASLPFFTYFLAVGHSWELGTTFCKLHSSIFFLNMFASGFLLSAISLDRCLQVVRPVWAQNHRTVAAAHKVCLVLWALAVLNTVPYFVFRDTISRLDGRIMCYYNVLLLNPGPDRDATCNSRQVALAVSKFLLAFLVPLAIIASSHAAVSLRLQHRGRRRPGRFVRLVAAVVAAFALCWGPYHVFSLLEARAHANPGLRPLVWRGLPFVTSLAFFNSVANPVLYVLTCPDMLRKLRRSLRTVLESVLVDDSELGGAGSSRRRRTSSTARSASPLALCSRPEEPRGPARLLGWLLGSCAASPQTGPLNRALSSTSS
# Assay: Radioligand binding assay ([3H]-PGD2 displacement, SPA)
# Set-up: expressed in transfected cells; host or cells: HEK cell membranes
# Conditions: HEK cell membranes expressing the CRTH2 receptor, 1 nM [3H]-PGD2; Ki from IC50 by Cheng-Prusoff
# Experimental: Radioligand Binding Assay
# The receptor binding assay is performed in a final volume of 200 μL binding buffer [10 mM BES (pH 7.4), 1 mM EDTA, 10 mM manganese chloride, 0.01% BSA] and 1 nM [^3H]-PGD2 (Amersham Biosciences UK Ltd). Ligands are added in assay buffer containing a constant amount of DMSO (1% by volume). Total binding is determined using 1% by volume of DMSO in assay buffer and non-specific binding is determined using 10 μM of unlabeled PGD2 (Sigma). Human embryonic kidney (HEK) cell membranes (3.5 μg) expressing the CRTH2 receptor are incubated with 1.5 mg wheatgerm agglutinin SPA beads and 1 nM [^3H]-PGD2 (Amersham Biosciences UK Ltd) and the mixture incubated for 3 hours at room temperature. Bound [^3H]-PGD2 is detected using a Microbeta TRILUX liquid scintillation counter (Perkin Elmer). Compound IC50 value is determined using a 6-point dose response curve in duplicate with a semi-log compound dilution series. IC50 calculations are performed using Excel and XLfit (Microsoft), and this value is used to determine a Ki value for the test compound using the Cheng-Prusoff equation.
row,Ki [µM],Structure (SMILES)
1,< 0.1,"CCc1nc2c(F)ccc(O[C@@H](C)C(=O)O)c2c(OC)c1Cc1ccc(Cl)cc1Cl [Example 75, (S)-2-[3-(2,4-dichlorobenzyl)-2-ethyl-8-fluoro-4-methoxyquinolin-5-yloxy]propionic Acid]"
2,< 0.1,"CCc1nc2c(F)ccc(OCC(=O)O)c2c(OC(F)F)c1Cc1ccc(S(C)(=O)=O)cc1 [Example 45, [4-difluoromethoxy-2-ethyl-8-fluoro-3-(4-methanesulfonylbenzyl)-quinolin-5-yloxy]acetic Acid]"
3,< 0.1,"Cc1c(Cc2ccc(F)cc2Cl)c(OC(F)F)nc2c(F)ccc(OCC(=O)O)c12 [Example 59, [3-(2-chloro-4-fluorobenzyl)-2-difluoromethoxy-8-fluoro-4-methylquinolin-5-yloxy]acetic Acid]"
4,< 0.1,"Cc1c(Cc2ccc(Cl)cc2Cl)c(OC(F)F)nc2c(F)ccc(OCC(=O)O)c12 [Example 51, [3-(2,4-dichlorobenzyl)-2-difluoromethoxy-8-fluoro-4-methylquinolin-5-yloxy]acetic Acid]"
5,< 0.1,"Cc1c(Cc2ccc(S(C)(=O)=O)cc2)c(OC(F)F)nc2c(F)ccc(OCC(=O)O)c12 [Example 48, [2-difluoromethoxy-8-fluoro-3-(4-methanesulfonylbenzyl)-4-methylquinolin-5-yloxy]acetic acid]"
6,< 0.1,"Cc1c(Cc2ccc(F)cc2F)c(OC(F)F)nc2c(F)ccc(OCC(=O)O)c12 [Example 55, [3-(2,4-difluorobenzyl)-2-difluoromethoxy-8-fluoro-4-methylquinolin-5-yloxy]acetic acid]"
7,< 0.1,"CCc1nc2c(F)ccc(O[C@@H](C)C(=O)O)c2c(OC(F)F)c1Cc1ccc(C(=O)N2CCCC2)cc1Cl [Example 73, (S)-2-{3-[2-chloro-4-(pyrrolidine-1-carbonyl)benzyl]-4-difluoromethoxy-2-ethyl-8-fluoroquinolin-5-yloxy}propionic Acid]"
8,< 0.1,"CCc1nc2c(F)ccc(OCC(=O)O)c2c(OC(F)F)c1Cc1ccc(F)cc1Cl [Example 58, [3-(2-chloro-4-fluorobenzyl)-4-difluoromethoxy-2-ethyl-8-fluoroquinolin-5-yloxy]acetic Acid]"
9,< 0.1,"CCc1nc2c(F)ccc(OCC(=O)O)c2c(OC(F)F)c1Cc1ccc(F)cc1F [Example 53, [3-(2,4-difluorobenzyl)-4-difluoromethoxy-2-ethyl-8-fluoroquinolin-5-yloxy]acetic Acid]"
10,< 0.1,"Cc1c(Cc2ccc(S(C)(=O)=O)cc2Cl)c(OC(F)F)nc2c(F)ccc(OCC(=O)O)c12 [Example 46, [3-(2-chloro-4-methanesulfonylbenzyl)-2-difluoromethoxy-8-fluoro-4-methylquinolin-5-yloxy]acetic acid]"
11,< 0.1,"CCc1nc2c(F)ccc(OCC(=O)O)c2c(OC(F)F)c1Cc1ccc(C(=O)NC2CCC2)cc1Cl [Example 76, [3-(2-chloro-4-cyclobutylcarbamoylbenzyl)-4-difluoromethoxy-2-ethyl-8-fluoroquinolin-5-yloxy]acetic Acid]"
12,< 0.1,"CCc1nc2c(F)ccc(OCC(=O)O)c2c(OC(F)F)c1Cc1ccc(C(=O)N2CCCC2)cc1Cl [Example 72, {3-[2-chloro-4-(pyrrolidine-1-carbonyl)benzyl]-4-difluoromethoxy-2-ethyl-8-fluoroquinolin-5-yloxy}acetic Acid]"
13,< 10,"Cc1c(Cc2ccc(Cl)cc2)c(OC(F)F)nc2c(Cl)ccc(OC(C)(C)C(=O)O)c12 [Example 66, 2-[8-chloro-3-(4-chlorobenzyl)-2-difluoromethoxy-4-methylquinolin-5-yloxy]-2-methylpropionic Acid]"
14,< 0.1,"CCc1nc2c(F)ccc(OCC(=O)O)c2c(OC(F)F)c1Cc1ccc(Cl)cc1F [Example 63, [3-(4-chloro-2-fluorobenzyl)-4-difluoromethoxy-2-ethyl-8-fluoroquinolin-5-yloxy]acetic acid]"
15,< 10,"Cc1cc(OCC(=O)O)c2c(C)c(Cc3ccc(Cl)cc3)cnc2c1 [Example 78, [3-(4-chlorobenzyl)-4,7-dimethylquinolin-5-yloxy]acetic Acid]"
16,< 0.1,"CCc1nc2c(F)ccc(OCC(=O)O)c2c(OC(F)F)c1Cc1ccc(C(=O)N2CCCC2)cc1 [Example 65, {4-difluoromethoxy-2-ethyl-8-fluoro-3-[4-(pyrrolidine-1-carbonyl)benzyl]quinolin-5-yloxy}acetic Acid]"
17,< 0.1,"CCS(=O)(=O)c1ccc(Cc2c(OC(F)F)nc3c(F)ccc(OCC(=O)O)c3c2C)cc1 [Example 61, [2-difluoromethoxy-3-(4-ethanesulfonylbenzyl)-8-fluoro-4-methylquinolin-5-yloxy]acetic Acid]"

# The next lines start with the compound.
row,Structure (SMILES),Ki [µM]
1,"Cc1c(Cc2ccc(F)cc2)c(OC(F)F)nc2c(Cl)ccc(OCC(=O)O)c12 [Example 19, [8-chloro-2-difluoromethoxy-3-(4-fluorobenzyl)-4-methylquinolin-5-yloxy]acetic acid]",< 0.1
2,"Cc1c(Cc2ccc(S(C)(=O)=O)cc2)c(OC(F)F)nc2c(Cl)ccc(CC(=O)O)c12 [Example 36, [8-chloro-2-difluoromethoxy-3-(4-methanesulfonylbenzyl)-4-methylquinolin-5-yl]acetic Acid]",< 0.1
3,"Cc1nc2c(Cl)ccc(OCC(=O)O)c2c(OC(F)F)c1Cc1ccc(S(C)(=O)=O)cc1 [Example 26, [8-chloro-4-difluoromethoxy-3-(4-methanesulfonylbenzyl)-2-methylquinolin-5-yloxy]acetic acid]",< 0.1
4,"Cc1nc2c(Cl)ccc(OCc3nnn[nH]3)c2c(C)c1Cc1ccc(Cl)cc1 [Example 23, 8-chloro-3-(4-chlorobenzyl)-2,4-dimethyl-5-(1H-tetrazol-5-ylmethoxy)quinoline]",< 10
5,"CC(C)c1nc2c(Cl)ccc(OCC(=O)O)c2c(OC(F)F)c1Cc1ccc(S(C)(=O)=O)cc1 [Example 43, [8-chloro-4-difluoromethoxy-2-isopropyl-3-(4-methanesulfonylbenzyl)quinolin-5-yloxy]acetic Acid]",< 0.1
6,"Cc1nc2cc(Cl)cc(CC(=O)O)c2c(C)c1Cc1ccc(Cl)cc1 [Example 11, [7-chloro-3-(4-chlorobenzyl)-2,4-dimethylquinolin-5-yl]acetic acid]",< 0.1
7,"Cc1nc2c(Cl)ccc(OCC(=O)NS(=O)(=O)c3ccccc3)c2c(C)c1Cc1ccc(Cl)cc1 [Example 14, N-{2-[8-chloro-3-(4-chlorobenzyl)-2,4-dimethylquinolin-5-yloxy]-acetyl}benzenesulfonamide]",< 10
8,"COc1c(Cc2ccc(Cl)cc2)c(C)nc2c(Cl)ccc(OCC(=O)O)c12 [Example 1, [8-chloro-3-(4-chlorobenzyl)-4-methoxy-2-methylquinolin-5-yloxy]acetic Acid]",< 0.1
9,"Cc1nc2c(Cl)ccc(OCC(=O)O)c2c(C)c1Cc1ccc(S(C)(=O)=O)cc1Cl [Example 38, [8-chloro-3-(2-chloro-4-methanesulfonylbenzyl)-2,4-dimethylquinolin-5-yloxy]acetic Acid]",< 0.1
10,"CCc1nc2c(Cl)ccc(OCC(=O)O)c2c(CC)c1Cc1ccc(S(C)(=O)=O)cc1 [Example 41, [8-chloro-2,4-diethyl-3-(4-methanesulfonylbenzyl)quinolin-5-yloxy]acetic Acid]",< 0.1
11,"CCOc1nc2cc(C)cc(CC(=O)O)c2c(C)c1Cc1ccc(Cl)cc1 [Example 3, [3-(4-chlorobenzyl)-2-ethoxy-4,7-dimethylquinolin-5-yl]acetic Acid]",< 0.1
12,"Cc1nc2c(Cl)ccc(CC(=O)O)c2c(C)c1Cc1ccc(Cl)cc1 [Example 6, [8-chloro-3-(4-chlorobenzyl)-2,4-dimethylquinolin-5-yl]acetic Acid]",< 0.1
13,"Cc1nc2c(Cl)ccc(OCC(=O)O)c2c(C)c1[S+]([O-])c1ccc(Cl)cc1 (stereo not drawn) [Example 22, [8-chloro-3-(4-chlorobenzenesulfinyl)-2,4-dimethylquinolin-5-yloxy]acetic Acid]",< 0.1
14,"Cc1c(Cc2ccc(F)cc2)c(OC(C)C)nc2c(Cl)ccc(OCC(=O)O)c12 [Example 31, [8-chloro-3-(4-fluorobenzyl)-2-isopropoxy-4-methylquinolin-5-yloxy]acetic Acid]",< 1
15,"Cc1nc2c(Cl)ccc(OCC(=O)O)c2c(OC(F)F)c1Sc1ccc(Cl)cc1 [Example 24, [8-chloro-3-(4-chlorophenylsulfanyl)-4-difluoromethoxy-2-methyl-quinolin-5-yloxy]acetic Acid]",< 0.1
16,"Cc1nc2c(Cl)ccc(OCC(=O)NS(C)(=O)=O)c2c(C)c1Cc1ccc(Cl)cc1 [Example 13, N-{2-[8-chloro-3-(4-chlorobenzyl)-2,4-dimethylquinolin-5-yloxy]-acetyl}methanesulfonamide]",< 1
